In test [1] the test system is cultured vascular smooth muscle cells (VSMC) derived from the aortas of rats. Description: cGMP producing activity in cultured VSMC (cGMP radioimmunoassay). Type of test: cell-based, rat. Conditions: for cGMP producing activity (in words): comparison with CNP-22 or α-hANP; for cGMP producing activity (% increase for 1 μm): specific activity compared to 1 μm α-hANP (2000 fmol/400000 cells) = 100, peptide at 1 μm. The method, then: 1-1: Measurement of CGMP Producing Activity
The above-mentioned activity of compounds synthesized according to the present invention was measured by the methods of Hirata et al. (Biochem. Biophys. Res. Commun., 128, 538, 1985) and Scarborough et al. (J. Biol. Chem., 261, 12960, 1986). The cells used were cultured vascular smooth muscle cells (hereunder abbreviated as VSMC) derived from the aortas of rats. From 10^-9 to 10^-6 M of α-hANP or a 20 peptide of interest was incubated together with VSMC and the amount cGMP produced was measured by cGMP radioimmunoassay. Percent maximum reactivity for each peptide, with the value of maximum reactivity for α-hANP being taken as 100%, was used as an indicator of activity.

Test [2] has the same test system. Nature of the test: Cell growth suppressing activity: [3H] thymidine uptake (DNA synthesis inhibition) in VSMC. Type of test: cell-based, rat. Conditions: for % Inhibition of 3H-thymidine uptake: 0.1 μm of each peptide, BSMC line stimulated with PDGF (20 ng/ml). On the procedure:
1-2: Measurement of Cell Growth Suppressing Activity
Cell growth suppressing activity was evaluated in accordance with the method of Kariya et al. (Atherosclerosis, 80, 143-147, 1990) by measuring the uptake of [^3 H] thymidine into cells as an indicator of percent DNA synthesis inhibition using the above-identified VSMC. Cells tuned to a stationary phase were incubated at 37° C. for 14 h with each sample added in the presence of 1% serum or 20 ng/ml of PDGF (platelet derived growth factor). Then, following the addition of 37 kBq/ml of [^3 H] thymidine, the incubation was continued for another 4 h and the radioactivity of [^3 H] thymidine incorporated into the cells was measured. The values of measurement were such that the uptake of [^3 H] thymidine for the case where only 1% serum or PDGF was added in the absence of peptide was taken as 100%, with the percent suppression due to the peptide addition being accordingly calculated.

The test system is the same in test [3]. Conditions: Furuya et al. 1990; cited from earlier work.

Entries after “also recorded” stand apart in the source; their conditions may differ. Where a SMILES comes first, the peptide text is derived from it. Bridges are numbered along the chain shown (N, C = ends). Where no end group is shown, it is not given here.

In the case of `CC[C@H](C)[C@@H]1NC(=O)[C@H](CCCNC(=N)N)NC(=O)[C@H](CC(=O)O)NC(=O)[C@H](CC(C)C)NC(=O)[C@H](CCCCN)NC(=O)[C@H](CC(C)C)NC(=O)CNC(=O)[C@H](Cc2ccccc2)NC(=O)[C@@H](N)CSSC[C@@H](C(=O)N[C@@H](CC(N)=O)C(=O)N[C@@H](CO)C(=O)N[C@@H](Cc2ccccc2)C(=O)N[C@@H](CCCNC(=N)N)C(=O)N[C@@H](Cc2ccc(O)cc2)C(=O)O)NC(=O)CNC(=O)[C@H](CC(C)C)NC(=O)CNC(=O)[C@H](CO)NC(=O)[C@H](CCC(N)=O)NC(=O)[C@H](C)NC(=O)CNC1=O` [Compound 15, [Leu10, Lys11, Leu12] α-hANP (7-28)] (H-CFGLKLDRIGAQSGLGCNSFRY-OH; disulfide 1-17), in test [1] (rat VSMC), the “cGMP producing activity (in words)” value is on record as “strong cGMP producing activity at a substantially comparable level to CNP-22”. In addition, the “cGMP producing activity relative to α-hANP” value in test [1] (rat VSMC, times as high activity as α-hANP) was 4-6 times. The “cGMP producing activity (% increase for 1 μm)” value in test [1] was 559%. Also, the “% Inhibition of 3H-thymidine uptake” value in test [2] turned out to be 72%.
`CC[C@H](C)[C@@H]1NC(=O)[C@H](CCCNC(=N)N)NC(=O)[C@H](CC(=O)O)NC(=O)[C@H](CC(C)C)NC(=O)[C@H](CCCCN)NC(=O)[C@H](CC(C)C)NC(=O)CNC(=O)[C@H](Cc2ccccc2)NC(=O)[C@@H](N)CSSC[C@@H](C(=O)O)NC(=O)CNC(=O)[C@H](CC(C)C)NC(=O)CNC(=O)[C@H](CO)NC(=O)[C@H](CCSC)NC(=O)[C@H](CO)NC(=O)CNC1=O` [Compound 5, CFGLKLDRIGSMSGLGC] (H-CFGLKLDRIGSMSGLGC-OH; disulfide 1-17): the “cGMP producing activity (in words)” value in test [1] (rat VSMC) is given as “strong cGMP producing activity at a comparable level to that exhibited by CNP-22”. For the same compound, the “cGMP producing activity (% increase for 1 μm)” value in test [1] turned out to be 616%. Also, in test [2], the “% Inhibition of 3H-thymidine uptake” value turned out to be 65%.
Take `CC[C@H](C)[C@@H]1NC(=O)[C@H](CCCNC(=N)N)NC(=O)[C@H](CC(=O)O)NC(=O)[C@H](CC(C)C)NC(=O)[C@H](CCCCN)NC(=O)CNC(=O)CNC(=O)[C@H](Cc2ccccc2)NC(=O)[C@@H](NC(=O)CNC(=O)[C@H](CCCCN)NC(=O)[C@H](CO)NC(=O)[C@H](CC(C)C)NC(=O)CN)CSSC[C@@H](C(=O)O)NC(=O)CNC(=O)[C@H](CC(C)C)NC(=O)CNC(=O)[C@H](CO)NC(=O)[C@H](CCSC)NC(=O)[C@H](CO)NC(=O)CNC1=O` [Compound 6] (H-GLSKGCFGGKLDRIGSMSGLGC-OH; disulfide 6-22): the “cGMP producing activity (in words)” value in test [1] (rat VSMC) was “lower activity than CNP-22 (but higher than that of α-hANP); also recorded: lower in cGMP producing activity than the other one- and two-residue substituted derivatives”. Moreover, in test [1], the “cGMP producing activity (% increase for 1 μm)” value was determined as 344%. In addition, in test [2], the “% Inhibition of 3H-thymidine uptake” value is on record as 49%.
For `CC[C@H](C)[C@@H]1NC(=O)[C@H](CCCNC(=N)N)NC(=O)[C@H](CC(=O)O)NC(=O)[C@H](CCSC)NC(=O)[C@H](CCCNC(=N)N)NC(=O)CNC(=O)CNC(=O)[C@H](Cc2ccccc2)NC(=O)[C@@H](NC(=O)CNC(=O)[C@H](CCCCN)NC(=O)[C@H](CO)NC(=O)[C@H](CC(C)C)NC(=O)CN)CSSC[C@@H](C(=O)O)NC(=O)CNC(=O)[C@H](CC(C)C)NC(=O)CNC(=O)[C@H](CO)NC(=O)[C@H](CCSC)NC(=O)[C@H](CO)NC(=O)CNC1=O` [Compound 14] (H-GLSKGCFGGRMDRIGSMSGLGC-OH; disulfide 6-22), the “cGMP producing activity (in words)” value in test [1] (rat VSMC) is on record as “marked drop in activity”. The “cGMP producing activity (% increase for 1 μm)” value in test [1] amounted to 23%. Further, in test [2], the “% Inhibition of 3H-thymidine uptake” value was determined as 17%.
As for “CNP: C-type natriuretic peptide, named generically in the text (GLSKGCFGLKLDRIGSMSGLGC; disulfide 6-22 (inferred); ends not checked; UniProt P23582 105-126, looked up) [reference compound]”, the “intensity of DNA synthesis / cell growth suppressing action relative to α-hANP” value in test [2] (rat VSMC, compared with α-hANP) came out at 10 times. The “increase of intracellular cGMP level in VSMC compared with ANP or BNP” value in test [3] is on record as “several times as much”.

The values above are taken from patent publication US5434133A, “CNP analog peptides and their use” (Suntory Limited, priority 1991, dated 1995).
